# Measured values as given in patent US20080299109A1, “MECHANISM OF ASTRICYTE-NEURON SIGNALING” (Korea Institute of Science and Technology, priority 2007, published 2008).
# Key:
# [1] = system: cultured astrocytes; test: 3H-glutamate release assay in cultured wild-type astrocytes; assay type: cell-based, mouse; conditions: 50 μM BAPTA-AM 30 min; 50 μM trans-PDC present or absent
# Method: Astrocytes obtained in the above Example 1.1 were loaded with 0.5 μM L-3H-glutamate for 60 min by adding […] of 1 mCi/ml L-3H-glutamate stock solution to 2 ml of DMEM culture media.
# Cells were washed with an external solution 3 times.
# Agonists (TFLLR 30 μM) were added to the external solution for 6 min and the experiment was terminated by collection of the solution. Each experimental run included a control condition in which no agonist was added. Six replicates were obtained for each drug condition. For analysis, the average radioactivity count was obtained from 6 replicates for each condition and this average was compared to the average of the control condition.
# Cells were washed with an external solution and subsequently TFLLR (30 μM) was added for 6 min. […] In the top panel, the thick boxes represent cells in culture media and the white boxes represent cells in external solution.
# [2] = system: cultured wild-type mouse astrocytes; test: Fura-2 intracellular Ca2+ imaging in cultured wild-type astrocytes; assay type: cell-based; conditions: 30 μM TFLLR; for level of astrocytic intracellular Ca^2+ (Fura-2 fluorescence ratio): 10 μM bradykinin, 50 μM 2-methyl-thio-ATP, 10 μM ATP, 30 nM thrombin; for effect on TFLLR-induced Ca^2+ response: 1 μM BMS200261, 1 μM thapsigargin, 50 μM BAPTA-AM 30 min, 2 μM U-73122 10 min
# Method: Cultured astrocytes were prepared from P0-P3 postnatal mice obtained from KIST SPF. The cerebral cortex was dissected free of adherent meninges, minced, and dissociated into single cell suspension by trituration through a Pasteur pipette. All procedures involving the use of animals were reviewed and approved by the Emory University IACUC. Dissociated cells were plated onto either 12 mm glass coverslips or 6 well plates coated with 0.1 mg/ml poly-D-lysine. Cells were grown in a DMEM media (Gibco, cat# 11960-044) supplemented with 25 mM glucose, 10% heat-inactivated horse serum, and 10% heat-inactivated fetal bovine serum, 2 mM glutamine, and 1000 units/ml penicillin-streptomycin. Cultures were maintained at 37° C. in a humidified 5% CO2-containing atmosphere. […] In some experiments, the culture media was replaced 24 hours after plating with DMEM with all added components except glutamine, and cultures were maintained for 4 days before experimentation in glutamine-free media.
# Cultured astrocytes were incubated with 5 µM Fura2-AM in […] pluronic acid (Molecular Probes) for 30 min at room temperature, and subsequently transferred to a microscope stage for imaging. The external solution contained 150 mM NaCl, 10 mM HEPES, 3 mM KCl, 2 mM CaCl2, 2 mM MgCl2, and 5.5 mM glucose, and the pH was adjusted to pH 7.3 and osmolarity to 325 mOsm. Intensity images of a 510 nm wavelength were taken at 340 nm and 380 nm excitation wavelengths using either a Micromax Camera (Princeton) or an intensified video camera (PTI), and the two resulting images were used for ratio calculations using Axon Imaging Workbench version 2.2.1.
# [3] = system: wild-type astrocytes; test: Sniffer-patch detection of glutamate release, GluR1(L497Y)-transfected HEK cells on wild-type astrocytes; assay type: cell-based, mouse
# Method: HEK 293 cells (ATCC1573) were plated onto 12 mm glass coverslips coated with 5-10 ug/ml poly-D-lysine and grown in a DMEM media (Gibco, cat# 11960-044) supplemented with 25 mM glucose, 10% heat-inactivated horse serum, and 10% heat-inactivated fetal bovine serum, 2 mM glutamine, and 1000 units/ml penicillin-streptomycin (Banke & Traynelis, 2000; Traynelis & Wahl, 1996). The obtained cultures were maintained at 37° C. in a humidified 5% CO2-containing atmosphere.
# HEK 293 cells were transfected with a 1:3.5 ratio of GFP and GluR1(L497Y) using the calcium phosphate method using effectence for 6-8 hours, after which the media was replaced and supplemented with 1 mM kynurenic acid and 10 μM N-(4-hydroxyphenylpropanoyl) spermine or 10 μM CNQX. The transfected HEK cells were subsequently trypsinized and replated onto astrocyte feeder layers derived from either wild-type or PAR1−/− mice 24 hours post-transfection, and recordings performed 24 hours after replating.
# (§1) Whole-cell perforated-patch recording from cultured cortical neurons or HEK cells under voltage clamp (holding potential −60 mV) was made with an Axopatch 200B amplifier (Axon Instruments, Union City, Calif.). The recording chamber was continually perfused with a recording solution comprised of 150 mM NaCl, 3 mM KCl, 2 mM CaCl2, 5.5 mM glucose, and 10 mM HEPES (pH 7.4 by NaOH; osmolality adjusted to 315-320 mOsm with sucrose). Recording electrodes (4-7 MΩ) were filled with (in mM) 150 mM CsMeSO4, 10 mM NaCl, 0.5 CaCl2, 10 mM HEPES, and 25-50 μg/ml gramicidin D (pH adjusted to 7.3 with CsOH and osmolality adjusted to 310 mOsm with sucrose). It took 20-30 min to achieve acceptable perforation with series resistance ranging from 30-60 MΩ. All electrophysiological data from cultured neurons cells in this study were collected at room temperature (23-26° C.).
# Thus, this technique provides millisecond time resolution for the detection of micromolar levels of glutamate released from astrocytes.
# GluR1(L497Y)-transfected HEK cells were directly plated onto an astrocyte monolayer, and subsequently the whole cell HEK current response under voltage clamp during a brief 0.2 sec application of the PAR1 activator TFLLR (500 μM), ATP (300 μM), or bradykinin (180 μM), respectively, from a pressurized pipette was recorded (FIGS. 5a, and 5b).
# Concentration(t)=EC50[response(t)/(100−response(t))]^(1/n) (Formula 1)
# [4] = system: cultured neurons; test: Sniffer-patch glutamate release from cultured neurons; assay type: cell-based; conditions: 10 μM CNQX, 530 mOsm
# Method: To verify this prediction, effects of a hyperosmotic solution on the glutamate-release from cultured neurons and astrocytes were evaluated and are shown in FIGS. 7a to 7c.
# The detection is abolished by the treatment of 10 μM CNQX.
# [5] = target: T1, GluR1(L497Y) (Rattus norvegicus, UniProt P19490, L497Y); test: Glutamate activation of GluR1(L497Y) in transfected HEK cells; assay type: cell-based
# T1 construct: expressed in transfected cells; host or cells: HEK 293 cells (ATCC1573)
# Method: HEK 293 cells were transfected with a 1:3.5 ratio of GFP and GluR1(L497Y) using the calcium phosphate method using effectence for 6-8 hours, after which the media was replaced and supplemented with 1 mM kynurenic acid and 10 μM N-(4-hydroxyphenylpropanoyl) spermine or 10 μM CNQX.
# as §1
# [6] = system: glutamate transporters; conditions: read-out: IC50 glutamate uptake block; Mitrovic & Johnston, 1994; cited from earlier work
# [7] = system: CA1 pyramidal neurons; test: Ca2+ dye imaging of CA1 pyramidal neurons in hippocampal slices; assay type: cell-based, rat; conditions: thrombin 30 nM, TFLLR 30 μM, trans-ACPD 100 μM, (S)-3,5-dihydroxyphenylglycine 30 μM
# Method: Young rats (Sprague-Dawley, age P15-P20) or mice (C57/B16, age P14-19) were deeply anesthetized with isoflurane and decapitated. The brain was rapidly removed and submerged in an ice-cold oxygenated artificial cerebrospinal fluid (ACSF) comprised of 130 mM NaCl, 24 mM NaHCO3, 3.5 mM KCl, 1.25 mM NaH2PO4, 1 mM CaCl2,3 mM MgCl2, and 10 mM glucose saturated with 95% O2/5% CO2, at pH 7.4.
# The external solution contained 1 μM TTX. Throughout the experiments, −5 mV voltage steps (15 ms duration) were applied at 30 sec intervals from a holding potential of −70 mV to continuously monitor the holding current, series resistance, and membrane input resistance. After entering whole-cell mode, the CA1 pyramidal cells in slices were maintained for 20 min to allow for dye filling before image acquisition using a Princeton Micromax camera.
# After the baseline period, TFLLR (30-100 μM) was applied, and images were acquired every 3 sec with a 25 ms exposure to 450-490 nm light for each image. Ca^2+-dependent fluorescence intensity (520 nm) was measured in cell bodies and processes by using Axon Imaging Workbench (v2.2.1) and expressed as ratio image of (F-Fo)/Fo, where Fo is the fluorescence intensity before drug treatment.
# [8] = system: PAR1−/− mouse astrocytes; test: Fura-2 intracellular Ca2+ imaging in cultured PAR1−/− astrocytes; assay type: cell-based; conditions: 30 μM TFLLR, 30 nM thrombin, 10 μM ATP positive control
# Method: Cultured astrocytes were prepared from P0-P3 postnatal mice obtained from KIST SPF. The cerebral cortex was dissected free of adherent meninges, minced, and dissociated into single cell suspension by trituration through a Pasteur pipette. All procedures involving the use of animals were reviewed and approved by the Emory University IACUC. Dissociated cells were plated onto either 12 mm glass coverslips or 6 well plates coated with 0.1 mg/ml poly-D-lysine. Cells were grown in a DMEM media (Gibco, cat# 11960-044) supplemented with 25 mM glucose, 10% heat-inactivated horse serum, and 10% heat-inactivated fetal bovine serum, 2 mM glutamine, and 1000 units/ml penicillin-streptomycin. Cultures were maintained at 37° C. in a humidified 5% CO2-containing atmosphere. Astrocyte cultures prepared in this way were previously determined by GFAP (glial fibrillary acidic protein) staining to be greater than 95% astrocytes (Nicole et al., 2005). In some experiments, the culture media was replaced 24 hours after plating with DMEM with all added components except glutamine, and cultures were maintained for 4 days before experimentation in glutamine-free media.
# Cultured astrocytes were incubated with 5 µM Fura2-AM in […] pluronic acid (Molecular Probes) for 30 min at room temperature, and subsequently transferred to a microscope stage for imaging. […]
# [9] = system: PAR1−/− cortical neurons on wild-type astrocyte monolayer; test: PAR1−/− cortical neurons co-cultured on wild-type astrocytes: dendritic Ca2+ and voltage clamp; assay type: cell-based, mouse; conditions: 300 μM TFLLR pressure-applied to astrocytes; 50 μM NMDA
# Method: For an astrocyte-neuron co-culture, a monolayer of wild-type astrocytes was grown to 70-100% confluency (7-14 days in culture). Subsequently, the cortex from a P0 to P5 PAR1−/− mouse (Connolly et al., 1996) was dissected free of meninges and digested for 30 min in 1 mg/ml trypsin at 37° C. PAR1−/− mice were >99% C57B1/6 (>7 backcrossings), and wild-type mice were from a colony derived from PAR1−/− littermates.
# All experiments were done within 3 generations of establishing the homozygous colony. The cortical cells were plated at low density on top of the monolayer of wild-type astrocytes obtained in above Example 1.1. Neurons were used for Ca^2+ imaging after 1-5 days in culture.
# as §1
# After a 20 min recovery, the bath perfusion was stopped and TFLLR was applied by brief (<1 sec) pressure ejection onto the astrocyte hosting the dye-loaded neuron in a static bath condition. Changes in fluorescence were monitored in a number of dendritic processes (schematized in FIGS. 8a and 8b).
# T1 sequence (P19490 19-907 L497Y): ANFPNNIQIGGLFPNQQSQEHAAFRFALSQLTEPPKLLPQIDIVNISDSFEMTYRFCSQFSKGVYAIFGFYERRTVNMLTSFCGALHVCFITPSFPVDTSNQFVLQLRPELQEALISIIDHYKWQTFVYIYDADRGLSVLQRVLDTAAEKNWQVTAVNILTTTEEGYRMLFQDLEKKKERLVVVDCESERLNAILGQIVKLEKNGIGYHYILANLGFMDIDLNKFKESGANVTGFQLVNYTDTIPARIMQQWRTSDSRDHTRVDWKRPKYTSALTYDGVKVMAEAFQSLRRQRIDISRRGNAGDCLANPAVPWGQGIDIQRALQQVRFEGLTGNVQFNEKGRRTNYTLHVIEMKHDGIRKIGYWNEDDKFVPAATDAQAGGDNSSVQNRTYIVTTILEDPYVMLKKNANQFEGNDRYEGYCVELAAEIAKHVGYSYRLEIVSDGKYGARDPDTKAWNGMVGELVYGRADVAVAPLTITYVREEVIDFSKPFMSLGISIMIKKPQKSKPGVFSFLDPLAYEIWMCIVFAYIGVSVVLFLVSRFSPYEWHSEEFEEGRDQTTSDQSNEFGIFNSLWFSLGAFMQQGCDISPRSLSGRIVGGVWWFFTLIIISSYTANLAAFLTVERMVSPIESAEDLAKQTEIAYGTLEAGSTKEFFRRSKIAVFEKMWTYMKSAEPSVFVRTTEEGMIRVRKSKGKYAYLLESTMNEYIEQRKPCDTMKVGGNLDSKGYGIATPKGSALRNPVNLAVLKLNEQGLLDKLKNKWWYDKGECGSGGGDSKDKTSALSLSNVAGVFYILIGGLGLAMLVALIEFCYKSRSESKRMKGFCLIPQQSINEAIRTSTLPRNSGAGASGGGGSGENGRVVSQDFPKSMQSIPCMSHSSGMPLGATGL
compound,measurement,setting,value
"CC(=O)OCOC(=O)CN(CC(=O)OCOC(C)=O)c1ccccc1OCCOc1ccccc1N(CC(=O)OCOC(C)=O)CC(=O)OCOC(C)=O [BAPTA-AM, 1,2-bis(2-aminophenoxy)ethane-N,N,N′,N′-tetra-acetic acid acetoxymethyl ester]",effect on TFLLR-induced glutamate release,[1],blocked
CSc1nc(N)c2ncn([C@@H]3O[C@H](COP(=O)(O)OP(=O)(O)OP(=O)(O)O)[C@@H](O)[C@H]3O)c2n1 [2-methyl-thio-ATP],level of astrocytic intracellular Ca^2+ (Fura-2 fluorescence ratio),[2],increase
N#Cc1cc2[nH]c(=O)c(=O)[nH]c2cc1[N+](=O)[O-] [CNQX],effect on TFLLR-evoked inward current in GluR1(L497Y) HEK cell,[3]; 10 μM CNQX,reversibly inhibits
same,"effect on TFLLR-evoked inward currents, glutamine-free medium",[3]; glutamine-free medium,completely abolished
same,effect on detection of hyperosmotic-solution evoked neuronal glutamate release,[4],abolished
N[C@@H](CCC(=O)O)C(=O)O [glutamate],Hill slope,[5],1.3
C/C=C(/C)C(=O)O[C@H]1C(C)=C2[C@H]([C@@H]1OC(=O)CCCCCCC)[C@@](C)(OC(C)=O)C[C@H](OC(=O)CCC)[C@@]1(O)[C@H]2OC(=O)[C@@]1(C)O [thapsigargin],effect on TFLLR-induced Ca^2+ response,[2],blocked
"O=C(O)[C@H]1CN[C@H](C(=O)O)C1 [trans-PDC, L-transpyrrolidine-2,4-dicarboxylic acid]",effect on TFLLR-induced glutamate release,[1],indistinguishable
same,IC50,[6],4 to 8 µM
"N[C@H](C(=O)O)c1cc(O)cc(O)c1 [(S)-3,5-dihydroxyphenylglycine]",somatic fluorescence of Ca^2+-sensitive dyes in CA1 pyramidal neurons,[7],strong increases
Nc1ncnc2c1ncn2[C@@H]1O[C@H](COP(=O)(O)OP(=O)(O)OP(=O)(O)O)[C@@H](O)[C@H]1O [ATP],level of astrocytic intracellular Ca^2+ (Fura-2 fluorescence ratio),[2],increase
same,intracellular Ca^2+ concentration in PAR1−/− astrocytes,[8],still responded
same,inward current in adjacent GluR1(L497Y)-transfected HEK cell,"[3]; brief pressure application 500 μM TFLLR, 300 μM ATP, 180 μM bradykinin",elicited an inward current
same,peak glutamate concentration,"[3]; wild-type astrocytes, converted from current by Formula 1",~5.9 µM
"CN[C@H](CC(=O)O)C(=O)O [NMDA, N-methyl-D-aspartic acid]",intra-neuronal Ca^2+ in dendrites (Oregon Green BAPTA-2 fluorescence),[9],saturating response
COc1ccc2c(c1)CC[C@@H]1[C@@H]2CC[C@]2(C)[C@@H](NCCCCCCN3C(=O)C=CC3=O)CC[C@@H]12 [U-73122],effect on TFLLR-induced Ca^2+ response,[2],similarly blocked
trans-Cinnamoyl-F(f)-F(Gn)L-Arg-Arg-NH2 [BMS 200261],effect on TFLLR-induced Ca^2+ response,[2],reversibly and completely antagonized
